Assays:
TrkA receptors = experiment: TrkA receptor tyrosine phosphorylation in PC12 (615) cells (anti-pan-Trk immunoprecipitation, PY99 anti-phosphotyrosine immunoblot); format: cell-based
Protocol: Stably transfected PC12 cells expressing high levels of TrkA (615) were treated with the indicated compounds for 2 hours. The cells were subsequently harvested in lysis buffer as described in the Materials and Methods of Example 1. Lysates were immunoprecipitated with anti-pan Trk rabbit antiserum. Immunocomplexes were analyzed by immunoblotting with anti-phosphotyrosine antibody (PY99).
In FIG. 2A, different concentrations of adenosine were administered to PC12615 cells for 2 hours or NGF (1 ng/ ml) for 10 min. Cells were also treated with CGS21680 at the indicated dose for 2 hours. In FIG. 2B, PC12 cells (615) were treated with adenosine (10 μM) for various times or with 5 ng/ml NGF for 10 min. Phosphorylated TrkA receptors were detected by immunoblot analysis using PY99 anti-phosphotyrosine antibodies. The amount of Trk receptors in each condition was verified by immunoblotting.
In FIG. 3A, PC12 cells (615) were treated with the A2A agonist CGS 21680 (10 nM) and an A1 agonist CPA (10 nM) for 2 hr. ZM 241385 (10 nM), an A2A antagonist, was incubated with the cells for 15 min prior to treatment with adenosine (10 μM) for 2 hours. In FIG. 3B, PC12 cells (615) were incubated with the indicated concentrations of PP1, a Src family kinase inhibitor (Hanke et al, 1996), for 30 min, and then treated with adenosine (10 μM) for 2 hours. Activation of TrkA was assessed by immunoprecipitation and immunoblot analysis using PY99 anti-phosphotyrosine antibody.
In FIG. 7A, different concentrations of PACAP27 were administered to PC12 (615) cells for 2 hours or NGF (5 ng/ml) for 10 min. […] Phosphorylated TrkA receptors were detected by immunoblot analysis using PY99 anti-phosphotyrosine antibodies. The level of Trk receptors for each condition was verified by immunoblotting with anti-Trk antibodies.
(§1) Immunoprotection and Immunoblotting. PC12 cells or PC12-615 cells (Hempstead et al, 1992), were maintained in Dulbecco's Modified Eagle's Medium (DMEM) containing 10% fetal bovine serum (FBS) supplemented with 100 units/ml penicillin, 100 μg/ml streptomycin, and 2 mM glutamine plus 200 μg/ml G418. Cells were placed in low serum medium (1% FBS, 0.5% horse serum) overnight prior to experiments. Cell lysates from PC12, 615 cells, or hippocampal cells were incubated in lysis buffer (1% NP40) for 4 hours to overnight at 4° C. with anti-pan-Trk polyclonal antibody, followed by incubation with protein A-Sepharose beads. Equivalent amounts of protein were analyzed for each condition. The beads' were washed five times with lysis buffer and the immune complexes were boiled in SDS-sample buffer and loaded on sodium dodecyl sulfate-polyacrylamide electrophoresis (SDS-PAGE) gels for immunoblot analysis. The immunoreactive protein bands were detected by ECL reagents based upon enhanced chemiluminescence procedure (Amersham Pharmacia).
Immunoprecipitated and Immunoblotting. PC12 (615) cells were maintained in DMEM containing 10% FBS supplemented with 100 units/ml penicillin, 100 μg/ml streptomycin, and 2 mM glutamine plus 200 μg/ml G418. Cells were placed in serum free medium overnight before experiments. Cell lysates from PC12(615) cells, or basal forebrain cells were incubated in lysis buffer (1% Nonidet P-40) for 4 hrs to overnight at 4° C. with anti-pan-Trk polyclonal antibody followed by incubation with protein A-Sepharose beads. Equivalent amounts of protein were analyzed for each condition.

[1] = system: NGF-differentiated PC12 cells; experiment: Cell death assay (LDH release), NGF-differentiated PC12 cells after NGF and serum withdrawal; format: cell-based
Protocol: (§2) FIGS. 6A and 6B show graphs on the trophic effects of adenosine in PC12 and hippocampal cells deprived of neurotrophins. In FIG. 6A, NGF-differentiated PC12 cells were prepared and then NGF and serum were withdrawn for 48 hours as described in the Materials and Methods section of Example 1. Upon NGF withdrawal, various concentrations of CGS 21680 (CGS) were added to the media. CON =No Addition. […] In FIG. 6B, hippocampal neurons were prepared and B27 was withdrawn for 48 hrs as described in the Materials and Methods section of Example 1. Upon B27 withdrawal, various concentrations of CGS 21680 (CGS) were added to the media. […] All LDH levels were quantitated and % cell death calculated as described in the Materials and Methods section of Example 1. All bars depict mean+SEM from three independent experiments.
Cell Death Assay. PC12 cells were differentiated in Dulbecco's modified Eagle's medium (DMEM), supplemented with 0.33% fetal bovine serum, 0.67% heat-inactivated horse serum, 2 mM L-glutamine and NGF (50 ng/ml) for 7 days. Serum and NGF were then removed, and adenosine agonists or growth factors added to the media. After 48 hrs, cell death was quantified by measuring lactate dehydrogenase (LDH) released from injured cells into the media using the Cytox 96 Cytotoxicity Assay Kit (Promega, Madison, Wis.). LDH values were normalized by subtracting the LDH released by cells maintained in NGF (50 ng/ml) and scaling to a full kill (=100%) reference induced by 5 min treatment with 1% Triton, an exposure that consistently killed all PC12 cells.

Akt = Akt activation in PC12 cells (anti-phospho Akt immunoblot); format: cell-based
Protocol: as §1, with “PC12 cells (615) were treated with adenosine (10 μM) for various times in the presence or absence of […] (100 nM) or LY294002 (10 μM). The cells were subsequently harvested in lysis buffer; lysates and immunoprecipitated samples were subsequently immunoblotted with anti-phospho MAP kinase, anti-phospho Akt, and anti-phosphotyrosine. Reprobing with anti-MAP kinase and anti-pan-Trk antibodies was carried out to ensure equal protein loading. To assess the activity of Akt, endogenous Akt can be immunoprecipitated from lysates with anti-Akt and the proteins assayed in Western blots with anti-phospho-Akt antibodies. Use of the anti-Akt antibody versus the anti-phospho-Akt antibody on lysates can give a comparative assessment of the relative level of the enzyme and extent of activation (Kim et al., 2001). […]” for “Immunoprotection”

MAP kinase = MAP kinase activation in PC12 cells (anti-phospho MAP kinase immunoblot); format: cell-based; conditions: K252a at concentrations that block TrkA signaling (100 nM)
Protocol: as §1, with “PC12 cells (615) were treated with adenosine (10 μM) for various times in the presence or absence of […] (100 nM) or LY294002 (10 μM). The cells were subsequently harvested in lysis buffer; lysates and immunoprecipitated samples were subsequently immunoblotted with anti-phospho MAP kinase, anti-phospho Akt, and anti-phosphotyrosine. Reprobing with anti-MAP kinase and anti-pan-Trk antibodies was carried out to ensure equal protein loading. Immunoprotection” for “Immunoprotection”, “The beads' were washed five times with lysis buffer and the immune complexes were boiled in SDS-sample buffer and loaded on sodium dodecyl sulfate-polyacrylamide electrophoresis (SDS-PAGE) gels for immunoblot analysis.” left out

hippocampal neurons = experiment: Cell death assay (LDH release), hippocampal neurons after B27 withdrawal; format: cell-based, rat; conditions: 100 nM, with CGS 21680 (10 nM) upon B27 withdrawal
Protocol: as §2, with “.” for “FIGS. 6A and 6B show graphs on the trophic effects of adenosine in PC12 and hippocampal cells deprived of neurotrophins.”
(§3) Hippocampal Cell Cultures. Dissociated primary cultures of hippocampal neurons from embryonic day 17 (E17) rats were prepared from timed-pregnant Sprague-Dawley rats as described previously (Aibel et al, 1998). Fetuses were removed under sterile conditions and kept in PBS on ice for microscopic dissection of the hippocampus. The meninges were removed and the tissue was placed in Neurobasal media (Gibco BRL). The tissue was briefly minced with fine forceps and then triturated with a fire polished pasteur pipet. Cells were counted and then plated on culture wells coated with 0.01 mg/ml poly-D-lysine overnight. Hippocampal cells were maintained in Neurobasal media, containing B27 supplement and L-glutamine (0.5 mM). Experiments were conducted 7–10 days after plating.
Hippocampal neurons were maintained in Neurobasal media containing B27 supplement and 0.5 mM L-glutamine for 10 days. B27 was then removed, and adenosine agonists or BDNF (100 ng/ml) was added to the media. MK-801 (1 μM) was added to all conditions, to decrease the contribution of NMDA-mediated cell death. After 48 hrs, cell death was assessed by measurement of LDH released into media.

TrkB receptors = experiment: Trk receptor phosphorylation in primary E17 hippocampal neurons (immunoprecipitation, anti-phosphotyrosine Western blot); format: cell-based, rat; conditions: 10 nM, two hours
Protocol: FIGS. 4A and 4B show Western blots on adenosine activation of Trk receptors in hippocampal neurons. Primary cultures of E17 hippocampal neurons were prepared as described in the Materials and Methods of Example 1 and treated with (FIG. 4A) CGS 21680 (10 nM) or BDNF (1 ng/ml) for various times and (FIG. 4B) either adenosine (10 μM), CGS 21680 (10 nM), CPA (10 nM) or BDNF (10 ng/ml) for 2 hr. Activation of TrkA receptors was assessed by immunoprecipitation and Western blotting with anti-phosphotyrosine antibody.
as §1
as §3, with “The tissue was briefly minced with fine forceps and then triturated with a fire polished pasteur pipet.” left out, “Hippocampal cells were maintained in Neurobasal media, containing B27 supplement and L-glutamine (0.5 mM). Experiments were conducted 7–10 days after plating.” left out

Compound: Cc1ccc(-c2nn(C(C)(C)C)c3ncnc(N)c23)cc1 [PP1]
- Effect on level of tyrosine phosphorylated TrkA receptors elicited by adenosine (TrkA receptors; 1 μM, 30 min, then adenosine (10 μM) for 2 hours): marked decrease
- Effect on tyrosine phosphorylated TrkA receptors elicited by adenosine, concentration dependence (TrkA receptors; increasing concentrations, then adenosine (10 μM) for 2 hours): progressively stronger inhibition

Compound: COc1cccc(-c2cc(=O)c3ccccc3o2)c1N [PD98059]
- Effect on survival imparted by CGS 21680 ([1]; 25 μM, with CGS 21680 (10 nM)): not found to have any effect

Compound: Nc1nc(NCCc2ccc(O)cc2)nc2nc(-c3ccco3)nn12 [ZM 241385, 4-[2-[7-amino-2-(2-furyl)-1,2,4-triazolo[1,5-a](1,3,5)triazin-5-ylamino]ethyl]phenol]
- Effect on adenosine-induced phosphorylation of TrkA receptors (TrkA receptors; 10 nM, 15 min prior to adenosine (10 μM) for 2 hours): antagonized the effects of adenosine

Compound: CN1CCc2cccc3c2[C@H]1Cc1ccc(O)c(O)c1-3 [apomorphine]
- Activation of TrkA receptors (tyrosine phosphorylation) (TrkA receptors; PC12 (615) cells, ligand for 2 hours, adenosine 10 μM): not observed

Compound: Pituitary adenylate cyclase activating polypeptide [PACAP]
- Akt activity (Akt; PC12 cells, PACAP treatment): stimulated
- Concentration range of the effect upon TrkA receptor activity (TrkA receptors; PC12 (615) cells, 2 hours): low nanomolar concentration range
- Time required for increase in TrkA activation (TrkA receptors; PC12 (615) cells, PACAP27 1 nM): 2 h

Compound: COC(=O)[C@@]1(O)C[C@H]2O[C@]1(C)n1c3ccccc3c3c4c(c5c6ccccc6n2c5c31)C(=O)NC4 [K252a]
- Effect on survival effect of CGS 21680 ([1]; 100 nM, with CGS 21680 (10 nM) upon NGF withdrawal): eliminated the positive effects of CGS 21680
- Effect on survival effects of NGF ([1]; 100 nM, with NGF (50 ng/ml)): reversed the survival effects of NGF
- Effect on MAP kinase activity induced by adenosine (MAP kinase): not altered
- Effect on survival action of CGS 21680 (hippocampal neurons): K-252a sensitive
- Effect on Akt activation by adenosine (Akt; pretreatment 100 nM): eliminated

Compound: OC[C@H]1O[C@@H](n2cnc3c(NC4CCCC4)ncnc32)[C@H](O)[C@@H]1O [CPA, N(6)-cyclopentyladenosine]
- Phosphorylation of TrkB receptors (TrkB receptors): did not activate TrkB receptors
- Increase in phosphorylated TrkA receptors (TrkA receptors; PC12 (615) cells, 10 nM, 2 hr): no effect
